{"source": "patent US20090074766A1", "about": "“Methods of inhibiting HIV-2 infection” (priority 2007, published 2009)", "key": {"HIV-1": {"tested_on": "HIV-1", "conditions": "treatment period of 10-14 days, dose-dependent; cited from earlier work"}, "[1]": {"conditions": "single administration of TAK-652 solution (Baba et al., 2005); cited from earlier work"}, "[2]": {"tested_on": "reporter viruses pseudotyped with HIV-1SF162 envelope", "type": "cell-based", "parameters": "CI90: unit not given beside the values", "conditions": "labelled 1st inhibitor with 2nd inhibitor PRO 140; envelope SF162; equimolar (1:10 PRO 140 to zidovudine or nevirapine)", "text": "A self-inactivating (SIN) vector was derived from the pNL4-3ΔEnv-luciferase vector (Dragic et al. 1996) by deleting 507 basepairs in the U3 region of the 3′ long terminal repeat (LTR) so as to remove the TATA box and transcription factor binding sites. The human cytomegalovirus promoter was inserted upstream of the luciferase (luc) gene to enable expression of luciferase following integration.\nReporter viruses pseudotyped with HIV-1JR-FL or HIV-1SF162 envelopes were generated by cotransfection of 293T cells with the SIN vector and the appropriate pcDNA env-expressing vector as previously described (Dragic et al. 1996). […] Cultures were incubated for 72 h at 37° C. in DMEM containing 10% fetal bovine serum, 1 mg/mL puromycin, 0.3 mg/mL geneticin, antibiotics, and 0.5% DMSO. Luciferase activity (relative light units or RLU) was measured using BrightGlo reagent (Promega, Madison, Wis.) according to the manufacturer's instructions. Percent inhibition was calculated as: (1−RLU in the presence of inhibitor/RLU in the absence of inhibitor)×100.\nExperimental design and data analysis were based on the combination index (CI) method (Chou et al. 1991; Chou et al. 1984). Compounds were tested individually and in combination at a fixed molar ratio over a range of serial dilutions. […] The mutually exclusive CI formula was used for combinations of CCR5 inhibitors, while the mutually non-exclusive formula was utilized for combinations of inhibitors to distinct targets (Chou et al. 1991). Each test was conducted 4-12 times. Synergy, additivity and antagonism are indicated by CI<1, CI=1 and CI>1, respectively."}, "[3]": {"tested_on": "reporter viruses pseudotyped with HIV-1JR-FL envelope", "type": "cell-based", "parameters": "CI90: unit not given beside the values", "conditions": "for CI50 / CI90: labelled 1st inhibitor with 2nd inhibitor PRO 140, envelope JRFL, equimolar (1:10 PRO 140 to zidovudine or nevirapine); for inhibition of HIV-1 pseudovirus entry: result in words, data not shown", "text": "HIV-1 pseudoparticles (HIV-1pp) are generated in 293T cells by transient coexpression of an HIV-1-based NL4/3luc+env− plasmid and a construct encoding HIV-1JRFL Env. The NL4/3luc+env− plasmid was obtained from the NIH AIDS Research and Reference Reagent Program (Cat. No. 3418), and the HIV-1JRFL Env was inserted into the pcDNA3.1 vector (Invitrogen). Briefly, 293T cells are calcium phosphate transfected with a 1:1 ratio of NL4/3luc+env− reporter vector and Env expression vector in Hepes buffer (Profection Mammalian Transfection Kit, Promega). After 16 h the transfection medium is aspirated and fresh cell culture medium (DMEM with 10% FBS, glutamine and antibiotics) is added and the incubation is continued at 37° C. for an additional 24-32 h. Cell culture supernatants are collected 48 h post-transfection and centrifuged at 1,400 rpm for 10 min to pellet cell debris. The viral supernatant is brought to a final concentration of 5% sucrose and stored aliquoted at −80° C.\nU87-CD4-CCR5 cells were obtained from the NIH AIDS Research and Reference Program (Cat. No. 4035). These cells are maintained in culture medium (DMEM with 10% FBS, antibiotics and glutamine) containing 0.3 mg/ml G418 and 0.5 mg/ml puromycin. Cells are grown in T175-cm^2 flasks at 37° C. and diluted 1:5 every 3-4 days. For assay plate preparation, cells are trypsinized and seeded into wells of 96-well tissue-culture treated flat bottom opaque polystyrene plates (Perkin Elmer, Boston, Mass.) at a density of 3×10^3 cells/well. Plates are incubated for no more than 4 h at 37° C. in a humidified 5% CO2 incubator prior to their use in the HIV-1 pp susceptibility assay.\nFifty μl of diluted compound at 4× the desired final concentration are added per well. For compounds solubilized in DMSO, the 4× stock will contain 2% DMSO (such that the final DMSO concentration in the assay is always 0.5% for small molecules). Control wells receiving no compound are included on each plate. In addition, an AZT inhibition control is included in each assay. Compounds are tested individually and at a fixed mass or molar ratio over a broad range of concentrations.\nA vial of frozen, aliquoted HIV-1pp is thawed in a 37° C. waterbath and then placed on wet ice. Virus is diluted in cold cell culture medium as necessary to achieve the desired final virus concentration in the HIV-1pp assay (about 10,000 relative light units (rlu) per well). 50 μl of diluted virus are added per well, bringing the final well volume to 200 μl. A no-virus control (minimum or background luminescence) and a no-compound control (maximum luminescence) are included on each plate. The plates are incubated for 72 h at 37° C. in a humidified 5% CO2 incubator followed by processing for luciferase signal (see below).\nAssay medium is aspirated and 200 μl of PBS are added to each well. […] Assay plates are then frozen for at least 2 h at −80° C. followed by thawing at room temperature and vigorous mixing with an electronic pipettor. 25 μl from each well are transferred to an opaque 96-well plate (Costar #3922). Four replicates are pooled into the same well on the opaque plate. 100 μl of freshly thawed and reconstituted luciferase substrate (Luciferase Assay System, Promega—Cat. No. E1501) are added to each well of the plate with the electronic pipettor, and luminescence is detected immediately on a Dynex MLX plate reader set to medium gain.\nThe percent inhibition is derived as follows: [1−(luciferase activity in the presence of drug/luciferase activity in the absence of drug)]×100. IC50 values are determined by fitting the inhibition data with a non-linear, four-parameter, variable slope equation (GraphPad Prism, ver. 4.02; GraphPad Software, San Diego, Calif.). Upper and lower inhibition values are constrained to 100% and 0%, respectively for curve fitting. […]"}, "[4]": {"molecular_target": "HIV-1JR-FL envelope-mediated membrane fusion (HeLa-EnvJRFL and CEM NKR-CCR5 cells) (Homo sapiens, UniProt P51681)", "sequence (P51681 whole entry, the tested form may be a part)": "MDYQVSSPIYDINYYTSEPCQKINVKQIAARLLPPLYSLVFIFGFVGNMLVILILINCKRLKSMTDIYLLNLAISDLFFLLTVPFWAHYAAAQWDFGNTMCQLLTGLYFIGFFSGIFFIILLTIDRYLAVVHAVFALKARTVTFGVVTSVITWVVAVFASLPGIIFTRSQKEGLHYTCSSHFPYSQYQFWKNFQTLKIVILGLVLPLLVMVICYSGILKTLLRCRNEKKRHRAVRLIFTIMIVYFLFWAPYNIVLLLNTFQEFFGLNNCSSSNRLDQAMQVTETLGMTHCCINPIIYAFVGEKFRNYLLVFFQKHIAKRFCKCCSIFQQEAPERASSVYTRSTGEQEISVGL", "test": "cell-based", "conditions": "2D7 in combination with the labelled inhibitor, 1:1 molar ratio", "experimental": "(§1) The HIV-1 RET assay has been described in detail previously (Litwin et al., 1996). Briefly, fluorescein octadecyl ester (F18; Molecular Probes, Eugene, Oreg.; 5 mg/ml in ethanol), was diluted 1:800 in DMEM labeling medium (DMEM; Invitrogen, Carlsbad, Calif.) with 10% fetal bovine serum (FBS; HyClone, Logan, Utah) and adjusted to an A506 of 0.34±10%. Octadecyl rhodamine B chloride (R18; Molecular Probes; 10 mg/ml in ethanol) was diluted 1:2050 in labeling medium and adjusted to an A565 of 0.52±10%. Both dyes were further diluted 2-fold by addition to cells in T75-cm^2 flasks. HeLa-EnvJRFL and CEM NKR-CCR5 cells were incubated overnight in F18- and R18-containing culture medium, respectively. The following day, medium from HeLa-EnvJRFL cells was removed and 10 ml of 0.5 mM EDTA was added and incubated at 37° C. for 5 min. EDTA was removed and the flask was returned to the incubator for another 5 min followed by striking of the flask to dislodge cells. […] Suspension CEM NKR-CCR5 cells were added directly to a separate 50-ml conical centrifuge tube. Both cell lines were centrifuged at 300×g for 5 min. The supernatant was discarded and cells were resuspended in 10 ml of PBS-/15% FBS. The centrifugation/wash step was repeated twice, after which the cells were counted and concentrations adjusted to 1.5×10^6 cells/ml. Ten μl of each cell type (15,000 cells) were seeded into wells of a 384-well plate. Inhibitor compounds were added immediately thereafter to bring the final well volume to 40 μl, and the plates were incubated for 4 h at 37° C. Compounds were tested individually and in combination at a fixed molar ratio or mass ratio over a range of serial dilutions. The plates were then read on a fluorescence plate reader (Victor^2, Perkin Elmer, Boston, Mass.) using the excitation/emission filter combinations shown in Table 6.\n(§2) The “% RET” was calculated according to the following formula after subtraction of background (blank) readings: […]\n(§3) The “% Inhibition” was calculated according to the following formula: […]\n(§4) Fifty percent inhibition (IC50) values were determined by fitting the inhibition data with a non-linear, four-parameter, variable slope equation (GraphPad Prism, 4.02; GraphPad Software, San Diego, Calif.). Upper and lower inhibition values were constrained to 100% and 0%, respectively for curve fitting.\n(§5) For testing, small molecule compounds were solubilized in dimethylsulfoxide (DMSO) to 10 mM and then diluted in DMSO to 200× the final concentration to be utilized in the antiviral assay. Serial dilutions of small molecules were conducted in DMSO. Subsequent dilutions were conducted in medium to achieve a final DMSO concentration in the assay of 0.5%. Peptides and mAbs were diluted in PBS in the absence of DMSO.\n(§6) HeLa cells were engineered to express HIV-1 gp120/gp41 from the macrophage-tropic primary isolate JRFL as described (HeLa-EnvJRFL; Litwin et al., 1996). Briefly, the HIV-1LAI Env gene was excised from the plasmid pMA243 (Dragic et al., 1992) and the HIV-1JRFL Env gene was inserted. The HIV-1JRFL Env gene was amplified from the plasmid pUCFL112-1 (Koyanagi et al., 1987). The resulting plasmid, designated JR-FL-pMA243, was sequenced by standard methods and transfected into HeLa cells using lipofectin (Gibco BRL/Invitrogen, Carlsbad, Calif.). HeLa-EnvJRFL transfectants were selected in methotrexate (Sigma, St. Louis, Mo.) and cloned twice by limiting dilution. The transduced human T cell leukemia line CEM NKR-CCR5 cells were obtained from the NIH AIDS Research and Reference Program (Cat. No. 458).\n(§7) The HIV-1 RET assay has been described in detail previously (Litwin et al., 1996). Briefly, fluorescein octadecyl ester (F18; Molecular Probes, Eugene, Oreg.; 5 mg/ml in ethanol), was diluted 1:800 in DMEM labeling medium (DMEM; Invitrogen, Carlsbad, Calif.) with 10% fetal bovine serum (FBS; HyClone, Logan, Utah) and adjusted to an A506 of 0.34±10%."}, "[5]": {"conditions": "in vivo, cited from earlier work"}, "[6]": {"tested_on": "HIV-1JR-FL envelope-mediated membrane fusion (HeLa-EnvJRFL and CEM NKR-CCR5 cells)", "test": "cell-based", "conditions": "1st inhibitor alone (Table 13)", "experimental": "as §1, §2, §3, §4, §5, §6, §7"}}}
{"compound": "CCCCN1C(=O)[C@@H]([C@H](O)C2CCCCC2)NC(=O)C12CCN(Cc1ccc(Oc3ccc(C(=O)O)cc3)cc1)CC2", "note": "[GW873140]", "values": [{"measurement": "mean reductions in HIV-1 RNA levels", "setting": "HIV-1", "result": "~1", "unit": "log10"}]}
{"compound": "CCO/N=C(\\c1ccc(Br)cc1)C1CCN(C2(C)CCN(C(=O)c3c(C)cc[n+]([O-])c3C)CC2)CC1", "note": "[SCH-C]", "values": [{"measurement": "mean reductions in HIV-1 RNA levels", "setting": "HIV-1", "result": "~1", "unit": "log10"}]}
{"compound": "CCCCOCCOc1ccc(-c2ccc3c(c2)/C=C(/C(=O)Nc2ccc([S@@+]([O-])Cc4cncn4CCC)cc2)CCCN3CC(C)C)cc1.CS(=O)(=O)O", "note": "[TAK-652]", "values": [{"measurement": "safety and tolerability", "setting": "[1]", "result": "safe and well tolerated"}]}
{"compound": "Cc1ccnc2c1NC(=O)c1cccnc1N2C1CC1", "note": "[nevirapine]", "values": [{"measurement": "CI50", "setting": "[2]", "result": "1.2 ± 0.34"}, {"measurement": "CI90", "setting": "[2]", "result": "0.63 ± 0.19"}, {"measurement": "CI50", "setting": "[3]", "result": "1.2 ± 0.38"}, {"measurement": "CI90", "setting": "[3]", "result": "0.73 ± 0.28"}]}
{"compound": "Cc1cn([C@H]2C[C@H](N=[N+]=[N-])[C@@H](CO)O2)c(=O)[nH]c1=O", "note": "[zidovudine]", "values": [{"measurement": "CI50", "setting": "[2]", "result": "0.99 ± 0.27"}, {"measurement": "CI90", "setting": "[2]", "result": "1.0 ± 0.38"}, {"measurement": "CI50", "setting": "[3]", "result": "1.1 ± 0.38"}, {"measurement": "CI90", "setting": "[3]", "result": "0.85 ± 0.26"}]}
{"compound": "RANTES: CC-chemokine, natural peptide ligand of CCR5, purchased from R&D Systems", "values": [{"measurement": "Mean Dose Reduction (2D7)", "setting": "[4]", "result": "1.94 ± 0.08"}, {"measurement": "Mean Dose Reduction (Cpd in combination)", "setting": "[4]", "result": "10.18 ± 1.86"}, {"measurement": "inhibition of HIV-1 pseudovirus entry", "setting": "[3]", "result": "Neither TAK-779 nor RANTES mediated consistent, high-level inhibition"}]}
{"compound": "TAK-779", "values": [{"measurement": "oral bioavailability", "setting": "[5]; po", "result": "poor oral bioavailability"}, {"measurement": "local tolerability", "setting": "[5]", "result": "local injection site irritation"}, {"measurement": "inhibition of HIV-1 pseudovirus entry", "setting": "[3]", "result": "Neither TAK-779 nor RANTES mediated consistent, high-level inhibition"}]}
{"compound": "enfuvirtide", "values": [{"measurement": "IC50", "setting": "[6]", "result": 8.6, "unit": "nM"}, {"measurement": "IC90", "setting": "[6]", "result": 66, "unit": "nM"}]}
